The target of one experiment is T1, p38α (Homo sapiens, UniProt Q16539).
T1 construct: SJFα PROTAC (13-atom linker, amide attachment) selectively degrades p38α; endogenous in cells; host or cells: MDA-MB-231
As to the kind of experiment: PROTAC-induced p38α degradation, western blot in MDA-MB-231 cells. The class given is cell-based. Conditions: 0.025-5.0 µM survey, ± one s.d., Supplementary Table 1; for DC50: biological duplicates. The method, then: (§1) MDA-MB-231 and HeLa cells were obtained from the American Type Culture Collection (ATCC), cultured in RPMI-1640 medium (1 × ) and Dulbecco’s modified Eagle’s medium (DMEM; 1 × ), respectively, containing 10% fetal bovine serum and 1% penicillin–streptomycin and grown in a humidified incubator at 37 °C and 5% CO2.
(§2) […] once with ice-cold PBS (1 × ), followed by lysis in buffer containing 25 mM Tris [pH 7.5], 0.25% sodium deoxycholate, 1% Triton X-100, supplemented with 1X protease inhibitor cocktail (Roche), and phosphatase inhibitors (10 mM NaF, 1 mM Na3VO4, and 20 mM β-glycerophosphate), unless otherwise noted. Lysates were spun at 14,000 × g for 10 min at 4 °C and supernatant was evaluated for protein content using a Pierce BCA Protein Assay (ThermoFisher Scientific). In all experiments, 25–50 μg of protein was loaded onto 10% SDS-PAGE gels or 4–20% Criterion TGX precast gradient gels (Bio-Rad), transferred to nitrocellulose membranes, and probed with the specified antibodies overnight at 4 °C in 1X TBS-Tween (Tris-buffered saline plus 0.02% Tween 20) containing 5% non-fat milk. Immunoblots were visualized using a Bio-Rad ChemiDoc imaging instrument and subsequently processed and quantified using the accompanying Bio-Rad ImageLab software. See Supplementary Figure 8 for uncropped scans of western blots shown in the main text figures.
(§3) Western blot data in Figs. 2, 6, and Supplementary Figures 2, 3 were quantified by using the band feature in Image Lab (Bio-Rad). The p38 values were normalized to the α-tubulin signal to account for differences in protein load, and PROTAC-treated normalized values were expressed as a % of the vehicle-treated (no PROTAC) value, which itself was defined as 100% p38 protein level. […] The sigmoidal fit established both the full extent of degradation, or Dmax at the bottom asymptote of the curve, as well as the DC50, which is the inflection point at which 50% of the total degradation observed was reached.

Another experiment concerns the target T2, p38δ (Homo sapiens, UniProt O15264).
T2 construct: endogenous in cells; host or cells: MDA-MB-231
T2 sequence (O15264 1-365): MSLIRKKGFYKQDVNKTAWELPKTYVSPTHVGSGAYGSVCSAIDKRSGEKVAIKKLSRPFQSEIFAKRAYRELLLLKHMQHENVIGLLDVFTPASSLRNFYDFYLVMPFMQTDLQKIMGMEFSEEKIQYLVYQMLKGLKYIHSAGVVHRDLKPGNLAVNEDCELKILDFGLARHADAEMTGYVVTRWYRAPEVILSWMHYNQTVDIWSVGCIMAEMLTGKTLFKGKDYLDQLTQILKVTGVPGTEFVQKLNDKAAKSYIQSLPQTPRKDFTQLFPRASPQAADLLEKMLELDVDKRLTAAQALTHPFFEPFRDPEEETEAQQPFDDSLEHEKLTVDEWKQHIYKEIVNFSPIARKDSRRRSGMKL
Briefly: PROTAC-induced p38δ degradation, western blot in MDA-MB-231 cells. Format: cell-based. Conditions: 0.025-5.0 µM survey, ± one s.d., Supplementary Table 1; for DC50: biological duplicates. The method, then: as §1, §2, §3
A general note: A western blot detects proteins with antibodies after separation by electrophoresis.

The structures appear in SMILES notation. Several values for one entry are separate records, joined by “and”; a condition that tells them apart may be missing. Identical values can stand only once.

T1 sequence (Q16539 whole entry): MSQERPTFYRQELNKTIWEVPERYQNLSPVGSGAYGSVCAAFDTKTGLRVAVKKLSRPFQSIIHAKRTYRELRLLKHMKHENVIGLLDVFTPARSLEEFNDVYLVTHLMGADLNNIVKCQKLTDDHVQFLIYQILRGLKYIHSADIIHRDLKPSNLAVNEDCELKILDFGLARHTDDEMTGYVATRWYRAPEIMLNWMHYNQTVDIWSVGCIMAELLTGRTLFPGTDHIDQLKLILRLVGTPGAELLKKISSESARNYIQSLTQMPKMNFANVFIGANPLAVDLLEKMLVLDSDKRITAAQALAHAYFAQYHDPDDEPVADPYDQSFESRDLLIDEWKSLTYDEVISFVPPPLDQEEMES

One may read the DC50 as the midpoint of the concentration-degradation curve. High values mean a less potent degrader, low ones a more potent degrader. For the compound `COc1cc2c(Oc3ccc(NC(=O)C4(C(=O)Nc5ccc(F)cc5)CC4)cc3F)ccnc2cc1OCCCOCCCOCCC(=O)N[C@H](C(=O)N1C[C@H](O)C[C@H]1C(=O)NCc1ccc(-c2scnc2C)cc1)C(C)(C)C`, at p38α, the DC50 worked out at 230 ± 47 nM and the “Dmax p38α (maximum percentage of degradation)” value was determined as 90.1 ± 4.2%. Moreover, on p38δ, the half-maximal degradation concentration (DC50) turned out to be 456 ± 362 nM.
`COc1cc2c(Oc3ccc(NC(=O)C4(C(=O)Nc5ccc(F)cc5)CC4)cc3F)ccnc2cc1OCCCOCCOCCCOc1cc(-c2scnc2C)ccc1CNC(=O)C1CC(O)CN1C(=O)C(C(C)C)N1Cc2ccccc2C1=O` (centres unmarked) [BES-4612]: at p38α, the DC50 was found to be 760 ± 1500 nM and the “Dmax p38α (maximum percentage of degradation)” value is reported as 16.8 ± 13.4%. At p38δ, the 50% degradation concentration (DC50) is 1890 ± 2350 nM and the “Dmax p38δ (maximum percentage of degradation)” value worked out at 78.7 ± 40.8%.
Regarding `COc1cc2c(Oc3ccc(NC(=O)C4(C(=O)Nc5ccc(F)cc5)CC4)cc3F)ccnc2cc1OCCCCOCCCCOc1cc(-c2scnc2C)ccc1CNC(=O)C1CC(O)CN1C(=O)C(C(C)C)N1Cc2ccccc2C1=O` (centres unmarked) [SJF-6677], at p38α, the DC50 came out at 127 ± 163 nM; the “Dmax p38α (maximum percentage of degradation)” value is < 50% and 25.3 ± 6.6%. Besides, on p38δ, the DC50 was found to be 106 ± 81.5 nM; the “Dmax p38δ (maximum percentage of degradation)” value is < 50% and 43.5 ± 7.2%.
`COc1cc2c(Oc3ccc(NC(=O)C4(C(=O)Nc5ccc(F)cc5)CC4)cc3F)ccnc2cc1OCCCOCCCOCCCOc1cc(-c2scnc2C)ccc1CNC(=O)C1CC(O)CN1C(=O)C(C(C)C)N1Cc2ccccc2C1=O` (centres unmarked) [SJF-6685]: the DC50 was determined as 304 ± 691 nM at p38α and 1140 ± 1950 nM on p38δ. The “Dmax p38δ (maximum percentage of degradation)” value on p38δ came to 33.5 ± 27.2%.
Consider `COc1cc2c(Oc3ccc(NC(=O)C4(C(=O)Nc5ccc(F)cc5)CC4)cc3F)ccnc2cc1OCCCOCCOCCC(=O)N[C@H](C(=O)N1C[C@H](O)C[C@H]1C(=O)NCc1ccc(-c2scnc2C)cc1)C(C)(C)C` [SJF-6690], for which the “Dmax p38α (maximum percentage of degradation)” value on p38α is given as 99.4 ± 2.0%. At p38δ, the DC50 was < 100 nM and 91.7 nM; the “Dmax p38δ (maximum percentage of degradation)” value was 96.7 ± 3.7%.
Turning to `COc1cc2c(Oc3ccc(NC(=O)C4(C(=O)Nc5ccc(F)cc5)CC4)cc3F)ccnc2cc1OCCOCCOCCC(=O)N[C@H](C(=O)N1C[C@H](O)C[C@H]1C(=O)NCc1ccc(-c2scnc2C)cc1)C(C)(C)C` [SJF-6693], the “Dmax p38α (maximum percentage of degradation)” value at p38α came out at 92.6 ± 2.8%. At p38δ, the 50% degradation concentration (DC50) is < 100 nM and 51.4 nM; the “Dmax p38δ (maximum percentage of degradation)” value was found to be 81.8 ± 1.9%.

For the origin of these results see PMC6328587 (Nature Communications, 2019).
